Entries after “also recorded” stand apart in the source; their conditions may differ.
How the values were obtained:
human PBMC [1] = experiment: Test compound induced cytokine secretion in human PBMC without LPS, 10 or 26 hours (Phase 1); conditions: 100 mM (so in the source), 10 hours, no LPS
Method: Secretion of the cytokines TNF-α (A), IL-1β (B) and IL-6 (C) were measured in supernatant of PBMC cultured in the presence of test compounds using a Luminex platform with the Milliplex MAP Human High Sensitivity T Cell Panel Immunology Multiplex Assay. Results are represented as a mean from 3 separate donors in pg/mL.
Whole blood was collected from 3 human donors and peripheral blood mononuclear cells (PBMC) were isolated using the Ficoll-Paque density gradient method. PBMC were then plated and left untouched for 2 hours to account for a 2 hours pretreatement period (see below for details), and incubated for 8 or 24 hours in a humidified incubator set to maintain 37° C. with 5% CO2, with different concentrations of LPS as per Table 11 in order to determine the optimal stimulation conditions to detect cytokine release. […] RPMI medium alone or supplemented with 0.1% DMSO (to mimic treatment conditions) were used as negative controls.
At the end of the incubation period, supernatant samples were recovered and stored at −80° C. until analysis (in duplicate) using a Luminex platform with the Milliplex MAP Human High Sensitivity T Cell Panel Immunology Multiplex Assay (Cat. No. HSTCMAG-28SK) with the following selected cytokines of interest: IL-1, IL-2, IL-6, IFN-g and TNF-α. Each assay was defined by one calibration curve and 2 sets of QCs and the results were expressed as pg/mL.

human PBMC [2] = experiment: LPS stimulated cytokine secretion in human PBMC pretreated with compounds (Phase 2); format: cell-based; set-up: TNF-α concentration in supernatant / IL-1β concentration in supernatant / IL-6 concentration in supernatant / IL-2 concentration in supernatant / IFN-g concentration in supernatant: unit of the concentration uncertain; conditions: for Effect on LPS stimulated secretion of IL-1b / Effect on LPS stimulated secretion of IL-6: 200 mM (so in the source), 2 h pretreatment, 1 ng/mL LPS 8 hours; for IL-2 concentration in supernatant / TNF-α concentration in supernatant / IL-1β concentration in supernatant / IFN-g concentration in supernatant / IL-6 concentration in supernatant: 8-hour 1 ng/mL LPS stimulation; for IL-2 concentration in supernatant: LLOQ = 1.698 pg/mL; for TNF-α concentration in supernatant: LLOQ = 2.018 pg/mL; for IL-1β concentration in supernatant: LLOQ = 2.299 pg/mL; for IFN-g concentration in supernatant: LLOQ = 2.792 pg/mL; for IL-6 concentration in supernatant: LLOQ = 0.831
Text: Results are represented as fold-change relative to LPS treatment alone for each cytokine calculated by means from 3 separate donors.
RPMI medium alone, RPMI supplemented with 0.2% DMSO (to mimic treatment conditions) or LPS stimulation alone were used as controls.
Except for the two negative control conditions, all 3 donors responded to all experimental conditions tested with the secretion of TNF-α, IL-1β, and IL-6 albeit with a high degree of variability.

## O=C(O)c1cc(O)c(O)c(O)c1 [Gallic Acid, Gallic acid]
Human PBMC [1]
  TNF-α, IL-1β, and/or IL-6 production, compound alone: minor increases
Human PBMC [2]
  Effect on LPS stimulated secretion of IL-1b: inhibition
  Effect on LPS stimulated secretion of IL-6: inhibition
Human PBMC [2]; listed as gallic acid
  Effect on LPS stimulated secretion of IL-1b: decrease; also recorded: inhibits
  Effect on LPS stimulated secretion of IL-6: decrease; also recorded: inhibits
Human PBMC [2]; Donor 1, 10 (unit uncertain)
  IL-2 concentration in supernatant: <LLOQ
  TNF-α concentration in supernatant: 2295.37 pg/mL
  IL-1β concentration in supernatant: 4009.57 pg/mL
  IFN-g concentration in supernatant: <LLOQ
  IL-6 concentration in supernatant: 1244.44 pg/mL
Human PBMC [2]; Donor 1, 100 (unit uncertain)
  IL-2 concentration in supernatant: <LLOQ
  TNF-α concentration in supernatant: 2673.83 pg/mL
  IL-1β concentration in supernatant: 2029.63 pg/mL
  IFN-g concentration in supernatant: <LLOQ
  IL-6 concentration in supernatant: 776.23 pg/mL
Human PBMC [2]; Donor 1, 200 (unit uncertain)
  IL-2 concentration in supernatant: <LLOQ
  TNF-α concentration in supernatant: 1973.87 pg/mL
  IL-1β concentration in supernatant: 905.16 pg/mL
  IFN-g concentration in supernatant: <LLOQ
  IL-6 concentration in supernatant: 466.09 pg/mL
Human PBMC [2]; Donor 2, 10 (unit uncertain)
  IL-2 concentration in supernatant: <LLOQ
  TNF-α concentration in supernatant: 924.89 pg/mL
  IL-1β concentration in supernatant: 2259.03 pg/mL
  IFN-g concentration in supernatant: <LLOQ
  IL-6 concentration in supernatant: 547.26 pg/mL
Human PBMC [2]; Donor 2, 100 (unit uncertain)
  IL-2 concentration in supernatant: <LLOQ
  TNF-α concentration in supernatant: 2001.65 pg/mL
  IL-1β concentration in supernatant: 1867.42 pg/mL
  IFN-g concentration in supernatant: <LLOQ
  IL-6 concentration in supernatant: 694.6 pg/mL
Human PBMC [2]; Donor 2, 200 (unit uncertain)
  IL-2 concentration in supernatant: <LLOQ
  TNF-α concentration in supernatant: 1867.55 pg/mL
  IL-1β concentration in supernatant: 858.76 pg/mL
  IFN-g concentration in supernatant: <LLOQ
  IL-6 concentration in supernatant: 426.3 pg/mL
Human PBMC [2]; Donor 3, 10 (unit uncertain)
  IL-2 concentration in supernatant: <LLOQ
  TNF-α concentration in supernatant: 4990.73 pg/mL
  IL-1β concentration in supernatant: 4065.13 pg/mL
  IFN-g concentration in supernatant: <LLOQ
  IL-6 concentration in supernatant: 547.26 pg/mL
Human PBMC [2]; Donor 3, 100 (unit uncertain)
  IL-2 concentration in supernatant: <LLOQ
  TNF-α concentration in supernatant: 3070.21 pg/mL
  IL-1β concentration in supernatant: 1788.4 pg/mL
  IFN-g concentration in supernatant: <LLOQ
  IL-6 concentration in supernatant: 694.6 pg/mL
Human PBMC [2]; Donor 3, 200 (unit uncertain)
  IL-2 concentration in supernatant: <LLOQ
  TNF-α concentration in supernatant: 4121.3 pg/mL
  IL-1β concentration in supernatant: 1478.91 pg/mL
  IFN-g concentration in supernatant: <LLOQ
  IL-6 concentration in supernatant: 426.3 pg/mL
